Test system: 463943-066-T-J2-PDC complex spheroid growth
Assay: Anticancer human tumor 463943-066-T-J2-PDC patient-derived colon adenocarcinoma cell line growth inhibition [Asc]
Conditions: for IC50: curve of first compound; for viability, T/C: stronger effect = lower value
Procedure, shortened: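 Tumor cells were grown as multicellular spheroids with stromal HUVEC and mesenchymal stem cells and treated singly or in combination. Concentrations fell in half-log steps from the clinical Cmax, or from 10 microM where none was known.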

[1] = second compound 0.0316 µM, first compound 0.00316 µM
[2] = second compound 0.0316 µM, first compound 0.01 µM
[3] = second compound 0.0316 µM, first compound 0.0316 µM
[4] = second compound 0.0316 µM, first compound 0.1 µM
[5] = second compound 0.0316 µM, first compound 0.316 µM
[6] = second compound 0.0316 µM, first compound 1 µM
[7] = second compound 0.1 µM, first compound 0.00316 µM
[8] = second compound 0.1 µM, first compound 0.01 µM
[9] = second compound 0.1 µM, first compound 0.0316 µM
[10] = second compound 0.1 µM, first compound 0.1 µM
[11] = second compound 0.1 µM, first compound 0.316 µM
[12] = second compound 0.1 µM, first compound 1 µM
[13] = second compound 0.316 µM, first compound 0.00316 µM
[14] = second compound 0.316 µM, first compound 0.01 µM
[15] = second compound 0.316 µM, first compound 0.0316 µM
[16] = second compound 0.316 µM, first compound 0.1 µM
[17] = second compound 0.316 µM, first compound 0.316 µM
[18] = second compound 0.316 µM, first compound 1 µM
[19] = second compound 1 µM, first compound 0.00316 µM
[20] = second compound 1 µM, first compound 0.01 µM
[21] = second compound 1 µM, first compound 0.0316 µM
[22] = second compound 1 µM, first compound 0.1 µM
[23] = second compound 1 µM, first compound 0.316 µM
[24] = second compound 1 µM, first compound 1 µM
[25] = second compound 3.16 µM, first compound 0.00316 µM
[26] = second compound 3.16 µM, first compound 0.01 µM
[27] = second compound 3.16 µM, first compound 0.0316 µM
[28] = second compound 3.16 µM, first compound 0.1 µM
[29] = second compound 3.16 µM, first compound 0.316 µM
[30] = second compound 3.16 µM, first compound 1 µM
[31] = second compound 10 µM, first compound 0.00316 µM
[32] = second compound 10 µM, first compound 0.01 µM
[33] = second compound 10 µM, first compound 0.0316 µM
[34] = second compound 10 µM, first compound 0.1 µM
[35] = second compound 10 µM, first compound 0.316 µM
[36] = second compound 10 µM, first compound 1 µM
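Note: compound exposure lasted 7 days.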
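Throughout, for viability, T/C: 100% = DMSO vehicle control wells.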

`CCN1CCN(Cc2ccc(Nc3ncc(F)c(-c4cc(F)c5nc(C)n(C(C)C)c5c4)n3)nc2)CC1` + Cc1c(S(C)(=O)=O)c(-c2cc(F)cc(N3CCN(c4ccc(NS(=O)(=O)c5ccc(NC(CCN6CCC(C(=O)OCCCP(=O)(O)O)CC6)CSc6ccccc6)c(S(=O)(=O)C(F)(F)F)c5)cc4)CC3)c2)c(-c2ccc(Cl)cc2)n1C(C)C was tested, and the IC50 (second compound 0.0316 µM) was greater than 1000 nM, the IC50 (second compound 0.1 µM) was greater than 1000 nM and the IC50 (second compound 0.316 µM) was greater than 1000 nM. For the same compound, the IC50 (second compound 1 µM) was greater than 1000 nM, the IC50 (second compound 3.16 µM) was greater than 1000 nM and the IC50 (second compound 10 µM) was 393 nM. The viability, T/C [1] was 98.2%, the viability, T/C [2] was 104% and the viability, T/C [3] was 87.9%. It also gave a viability, T/C [4] of 96.6%, a viability, T/C [5] of 109% and a viability, T/C [6] of 106%. It also gave a viability, T/C [7] of 94%, a viability, T/C [8] of 95.5% and a viability, T/C [9] of 92.1%. For the same compound, the viability, T/C [10] was 90.5%, the viability, T/C [11] was 103% and the viability, T/C [12] was 96.8%. For the same compound, the viability, T/C [13] was 90.9%, the viability, T/C [14] was 91.2% and the viability, T/C [15] was 84.4%. The viability, T/C [16] was 88.5%, the viability, T/C [17] was 90.3% and the viability, T/C [18] was 90%. The viability, T/C [19] was 79.7%, the viability, T/C [20] was 81.3% and the viability, T/C [21] was 76%. It also gave a viability, T/C [22] of 79%, a viability, T/C [23] of 80.6% and a viability, T/C [24] of 72.3%. For the same compound, the viability, T/C [25] was 61.8%, the viability, T/C [26] was 61.5% and the viability, T/C [27] was 62.4%. It also gave a viability, T/C [28] of 62.9%, a viability, T/C [29] of 60% and a viability, T/C [30] of 56%. The viability, T/C [31] was 49.1%, the viability, T/C [32] was 52.6% and the viability, T/C [33] was 51.4%. It also gave a viability, T/C [34] of 52.9%, a viability, T/C [35] of 51.2% and a viability, T/C [36] of 44.8%.

`NC(=O)C(=Cn1cnc(-c2cc(C(F)(F)F)cc(C(F)(F)F)c2)n1)c1cncnc1` + Cc1c(S(C)(=O)=O)c(-c2cc(F)cc(N3CCN(c4ccc(NS(=O)(=O)c5ccc(NC(CCN6CCC(C(=O)OCCCP(=O)(O)O)CC6)CSc6ccccc6)c(S(=O)(=O)C(F)(F)F)c5)cc4)CC3)c2)c(-c2ccc(Cl)cc2)n1C(C)C was tested, and the IC50 (second compound 0.0316 µM) was greater than 300 nM, the IC50 (second compound 0.1 µM) was greater than 300 nM and the IC50 (second compound 0.316 µM) was greater than 300 nM. The IC50 (second compound 1 µM) was greater than 300 nM, the IC50 (second compound 3.16 µM) was greater than 300 nM and the IC50 (second compound 10 µM) was 0.949 nM. For the same compound, the viability, T/C (second compound 0.0316 µM, first compound 0.000949 µM) was 96.5%, the viability, T/C (second compound 0.0316 µM, first compound 0.003 µM) was 97% and the viability, T/C (second compound 0.0316 µM, first compound 0.00949 µM) was 84.1%. For the same compound, the viability, T/C (second compound 0.0316 µM, first compound 0.03 µM) was 89.1%, the viability, T/C (second compound 0.0316 µM, first compound 0.0949 µM) was 86% and the viability, T/C (second compound 0.0316 µM, first compound 0.3 µM) was 72.3%. It also gave a viability, T/C (second compound 0.1 µM, first compound 0.000949 µM) of 93.9%, a viability, T/C (second compound 0.1 µM, first compound 0.003 µM) of 88.4% and a viability, T/C (second compound 0.1 µM, first compound 0.00949 µM) of 84.4%. The viability, T/C (second compound 0.1 µM, first compound 0.03 µM) was 80.7%, the viability, T/C (second compound 0.1 µM, first compound 0.0949 µM) was 81.8% and the viability, T/C (second compound 0.1 µM, first compound 0.3 µM) was 69.5%. The viability, T/C (second compound 0.316 µM, first compound 0.000949 µM) was 83.5%, the viability, T/C (second compound 0.316 µM, first compound 0.003 µM) was 90.7% and the viability, T/C (second compound 0.316 µM, first compound 0.00949 µM) was 75.2%. The viability, T/C (second compound 0.316 µM, first compound 0.03 µM) was 78.8%, the viability, T/C (second compound 0.316 µM, first compound 0.0949 µM) was 72% and the viability, T/C (second compound 0.316 µM, first compound 0.3 µM) was 71.3%. It also gave a viability, T/C (second compound 1 µM, first compound 0.000949 µM) of 78.9%, a viability, T/C (second compound 1 µM, first compound 0.003 µM) of 75.2% and a viability, T/C (second compound 1 µM, first compound 0.00949 µM) of 68.8%. It also gave a viability, T/C (second compound 1 µM, first compound 0.03 µM) of 72%, a viability, T/C (second compound 1 µM, first compound 0.0949 µM) of 72.7% and a viability, T/C (second compound 1 µM, first compound 0.3 µM) of 61%. For the same compound, the viability, T/C (second compound 3.16 µM, first compound 0.000949 µM) was 61.2%, the viability, T/C (second compound 3.16 µM, first compound 0.003 µM) was 59.6% and the viability, T/C (second compound 3.16 µM, first compound 0.00949 µM) was 57.6%. It also gave a viability, T/C (second compound 3.16 µM, first compound 0.03 µM) of 58.8%, a viability, T/C (second compound 3.16 µM, first compound 0.0949 µM) of 55.7% and a viability, T/C (second compound 3.16 µM, first compound 0.3 µM) of 49.6%. It also gave a viability, T/C (second compound 10 µM, first compound 0.000949 µM) of 50.1%, a viability, T/C (second compound 10 µM, first compound 0.003 µM) of 45.6% and a viability, T/C (second compound 10 µM, first compound 0.00949 µM) of 48.6%. The viability, T/C (second compound 10 µM, first compound 0.03 µM) was 44%, the viability, T/C (second compound 10 µM, first compound 0.0949 µM) was 52% and the viability, T/C (second compound 10 µM, first compound 0.3 µM) was 36.2%.

Compound `COc1c(OCCCN2CCOCC2)ccc2c3n(c(=NC(=O)c4cnc(N)nc4)nc12)CCN3` + Cc1c(S(C)(=O)=O)c(-c2cc(F)cc(N3CCN(c4ccc(NS(=O)(=O)c5ccc(NC(CCN6CCC(C(=O)OCCCP(=O)(O)O)CC6)CSc6ccccc6)c(S(=O)(=O)C(F)(F)F)c5)cc4)CC3)c2)c(-c2ccc(Cl)cc2)n1C(C)C has an IC50 (second compound 0.0316 µM) of 442 nM, an IC50 (second compound 0.1 µM) of 406 nM and an IC50 (second compound 0.316 µM) of 215 nM. The IC50 (second compound 1 µM) was 157 nM, the IC50 (second compound 3.16 µM) was 27 nM and the IC50 (second compound 10 µM) was less than 3.16 nM. For the same compound, the viability, T/C [1] was 95.3%, the viability, T/C [2] was 91.8% and the viability, T/C [3] was 83.6%. For the same compound, the viability, T/C [4] was 64.6%, the viability, T/C [5] was 57.8% and the viability, T/C [6] was 38.4%. It also gave a viability, T/C [7] of 94.4%, a viability, T/C [8] of 86% and a viability, T/C [9] of 79.3%. It also gave a viability, T/C [10] of 65.9%, a viability, T/C [11] of 55.7% and a viability, T/C [12] of 36.2%. For the same compound, the viability, T/C [13] was 87.7%, the viability, T/C [14] was 92.6% and the viability, T/C [15] was 69%. For the same compound, the viability, T/C [16] was 57.5%, the viability, T/C [17] was 49.7% and the viability, T/C [18] was 34.1%. The viability, T/C [19] was 78.9%, the viability, T/C [20] was 74.5% and the viability, T/C [21] was 61.8%. For the same compound, the viability, T/C [22] was 51.6%, the viability, T/C [23] was 49.5% and the viability, T/C [24] was 27.1%. The viability, T/C [25] was 63.6%, the viability, T/C [26] was 58.8% and the viability, T/C [27] was 46%. It also gave a viability, T/C [28] of 41%, a viability, T/C [29] of 33.6% and a viability, T/C [30] of 21.5%. For the same compound, the viability, T/C [31] was 48.1%, the viability, T/C [32] was 44.7% and the viability, T/C [33] was 41.2%. The viability, T/C [34] was 35.6%, the viability, T/C [35] was 35.6% and the viability, T/C [36] was 21.4%.
